Among the data in BindingDB's records for doi:10.1021/jm060996+ (Merck Research Laboratories, 2006) are IC50 values, retold here.

SMILES strings stand for the structures.

The target in this assay is Cannabinoid receptor 2 (Homo sapiens, UniProt P34972). In words: Inhibition of [3H]CP-55940 binding to human recombinant CB2 receptor in CHO cells.
Cannabinoid receptor 2, sequence (P34972 whole entry): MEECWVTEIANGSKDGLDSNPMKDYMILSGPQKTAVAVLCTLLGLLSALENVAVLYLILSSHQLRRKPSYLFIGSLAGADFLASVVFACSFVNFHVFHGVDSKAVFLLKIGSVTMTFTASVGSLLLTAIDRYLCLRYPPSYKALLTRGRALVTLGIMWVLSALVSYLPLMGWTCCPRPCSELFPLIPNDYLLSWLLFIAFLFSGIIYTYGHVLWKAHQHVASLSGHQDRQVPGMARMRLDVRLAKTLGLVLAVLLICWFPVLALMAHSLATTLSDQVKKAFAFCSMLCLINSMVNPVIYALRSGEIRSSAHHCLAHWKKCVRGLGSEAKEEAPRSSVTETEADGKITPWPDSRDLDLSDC
For `C[C@H](NC(=O)C(C)(C)Oc1cccc(Cl)c1)[C@@H](Cc1ccc(Cl)cc1)c1ccccc1` [N-[(1S,2S)-3-(4-chlorophenyl)-1-methyl-2-phenylpropyl]-2-(3-chlorophenyloxy)-2-methylpropanamide], the IC50 stood at 190 nM.
To `CC(NC(=O)C(C)(C)Oc1ccc(Cl)cc1)C(Cc1ccc(Cl)cc1)c1ccc(Cl)cc1` (stereo not given) [N-[2,3-bis(4-chlorophenyl)-1-methylpropyl]-2-(4-chlorophenyloxy)-2-methylpropanamide] belongs 1100 nM; to `C[C@H](NC(=O)C(C)(C)Oc1cc(F)cc(F)c1)[C@@H](Cc1ccc(Cl)cc1)c1ccccc1` [N-((2S,3S)-4-(4-chlorophenyl)-3-phenylbutan-2-yl)-2-(3,5-difluorophenoxy)-2-methylpropanamide], 200 nM.
To `C[C@H](NC(=O)C(C)(C)Oc1ccc(Cl)cc1)[C@@H](Cc1ccc(Cl)cc1)c1ccc(Cl)cc1` [(1S,2S)N-[2,3-bis(4-chlorophenyl)-1-methylpropyl]-2-(4-chlorophenyloxy)-2-methylpropanamide] belongs greater than 2000 nM.
Under `C[C@H](NC(=O)C(C)(C)Oc1ccc(C(F)(F)F)cn1)[C@@H](Cc1ccc(Cl)cc1)c1ccccc1` [N-((2S,3S)-4-(4-chlorophenyl)-3-phenylbutan-2-yl)-2-methyl-2-(5-(trifluoromethyl)pyridin-2-yloxy)propanamide] stands 140 nM.
On to `CC(NC(=O)C(C)(C)Oc1ccc(Cl)cc1)C(Cc1ccc(Cl)cc1)c1ccccc1` (stereo not given) [N-[3-(4-chlorophenyl)-1-methyl-2-phenylpropyl]-2-(4-chlorophenyloxy)-2-methylpropanamide], for which the IC50 stood at 610 nM.
To `C[C@H](NC(=O)C(C)(C)Oc1ccccc1)[C@@H](Cc1ccc(Cl)cc1)c1ccccc1` [N-((2S,3S)-4-(4-chlorophenyl)-3-phenylbutan-2-yl)-2-methyl-2-phenoxypropanamide] belongs 450 nM; to `C[C@H](NC(=O)C(C)(C)Oc1ccc(Cl)cn1)[C@@H](Cc1ccc(Cl)cc1)c1ccccc1` [N-[(1S,2S)-3-(4-chlorophenyl)-1-methyl-2-phenylpropyl]-2-[(5-chloro-2-pyridin-2-yl)oxy]-2-methylpropanamide], 100 nM.
For the compound `C[C@H](NC(=O)C(C)(C)Oc1cccc(F)c1)[C@@H](Cc1ccc(Cl)cc1)c1ccccc1` [N-[(1S,2S)-3-(4-chlorophenyl)-1-methyl-2-phenylpropyl]-2-(3-fluorophenyloxy)-2-methylpropanamide], the IC50 is 290 nM.
Under `C[C@H](NC(=O)C(C)(C)Oc1ccccn1)[C@@H](Cc1ccc(Cl)cc1)c1ccccc1` [N-[(1S,2S)-3-(4-chlorophenyl)-1-methyl-2-phenyl-propyl]-2-(2-pyridyloxy)-2-methylpropanamide] stands 88 nM.

As a reminder, the IC50 is the concentration that inhibits the measured activity by half.
